Laboratory results published in article PMC7464485, “Antimicrobial Activities of Highly Bioavailable Organic Salts and Ionic Liquids from Fluoroquinolones” (Pharmaceutics, 2020).
In brackets after ≈: the same amount, converted by molar mass. Where two headings read alike, the source gives them in different places.

Assays:
[1] = tested on: Bacillus subtilis (ATCC 6633); assay: Antimicrobial activity (growth, OD 600 nm); format: cell-based
[2] = tested on: Klebsiella pneumoniae (ATCC 11296); assay: Antimicrobial activity (growth, OD 600 nm); format: cell-based
[3] = tested on: Staphylococcus aureus (ATCC 25923); assay: Antimicrobial activity (growth, OD 600 nm); format: cell-based
[4] = cited from earlier work
[5] = Critical micelle concentration via ionic conductivity; format: physicochemical; details: for CMC: in water at 25 °C
[6] = in water at 25 °C, cited from earlier work
3T3 mouse fibroblasts = assay: Cytotoxicity on 3T3 cells (MTT); format: cell-based
[7] = Bacillus subtilis, ATCC6633, 0.001–10 µM, read-out: IC50 B. subtilis
[8] = Klebsiella pneumoniae, ATCC11296, 0.001–10 µM, read-out: IC50 K. pneumoniae
[9] = Staphylococcus aureus, ATCC25923, 0.001–10 µM, read-out: IC50 S. aureus
[10] = 0.001–10 µM, read-out: IC50 B. subtilis
[11] = relative decrease of inhibitory concentration vs ciprofloxacin
[12] = 0.001–10 µM, read-out: IC50 K. pneumoniae
[13] = 0.001–10 µM, read-out: IC50 S. aureus
[14] = relative decrease of inhibitory concentration vs norfloxacin

`O=C(O)c1cn(C2CC2)c2cc(N3CCNCC3)c(F)cc2c1=O` [Ciprofloxacin, ciprofloxacin, reference compound] showed an IC50 [1, 7] of 3.84 nM, an IC50 [2, 8] of 196 nM and an IC50 [3, 9] of 29.2 nM.
`CCn1cc(C(=O)O)c(=O)c2cc(F)c(N3CCNCC3)cc21` [Norfloxacin, norfloxacin, reference compound] gave an IC50 ([1]; 0.001–10 µM, listed as Nor, read-out: IC50 B. subtilis) of 117 nM, an IC50 [1, 7] of 97.7 nM and an IC50 [2, 8] of 255 nM. For the same compound, the IC50 [3, 9] was 123 nM, the Solubility in water ([4]; 25 °C, neutral form) was 370 µg/mL (≈ 1160 µM) and the Solubility in water ([4]; 25 °C, value outside parentheses) was 540 ± 20 µg/mL (≈ 1690 µM). For the same compound, the Solubility in water ([4]; 37 °C, value in parentheses) was 850 ± 40 µg/mL (≈ 2660 µM) and the Solubility in water ([4]; 37 °C, value outside parentheses) was 840 ± 20 µg/mL (≈ 2630 µM).
With `Cc1n(CCO)cc[n+]1C` [[C2OHDMIM]Cl, reference compound] the IC50 [1, 7] was > 10000 nM, the IC50 [2, 8] was > 10000 nM and the IC50 [3, 9] was > 10000 nM.
For `Cc1n(CCO)cc[n+]1C.O=C([O-])c1cn(C2CC2)c2cc(N3CCNCC3)c(F)cc2c1=O` [[C2OHDMIM][Cip]], the IC50 [1, 10] was 12.3 nM, the “RDIC50 B. subtilis” value [1, 11] was 0.3 and the IC50 [2, 12] was 51 nM. For the same compound, the “RDIC50 K. pneumoniae” value [2, 11] was 3.9, the IC50 [3, 13] was 21.2 nM and the “RDIC50 S. aureus” value [3, 11] was 1.4.
With `CCn1cc(C(=O)[O-])c(=O)c2cc(F)c(N3CCNCC3)cc21.Cc1n(CCO)cc[n+]1C` [[C2OHDMIM][Nor]] the “lost activity against B. subtilis vs norfloxacin” value [1] was 20%, the IC50 [1, 10] was 149 nM and the “RDIC50 B. subtilis” value [1, 14] was 0.8. The “increase in activity against K. pneumoniae vs norfloxacin” value [2] was 40%, the IC50 [2, 12] was 178 nM and the “RDIC50 K. pneumoniae” value [2, 14] was 1.4. For the same compound, the “increased activity against S. aureus vs norfloxacin” value [3] was 60%, the IC50 [3, 13] was 79.5 nM and the “RDIC50 S. aureus” value [3, 14] was 1.6.
In the case of `C[n+]1ccn(CCO)c1.O=C([O-])c1cn(C2CC2)c2cc(N3CCNCC3)c(F)cc2c1=O` [[C2OHMIM][Cip]], the IC50 [1, 10] is reported as 15.8 nM, the “RDIC50 B. subtilis” value [1, 11] is reported as 0.2 and the IC50 [2, 12] is reported as 36.4 nM. The “RDIC50 K. pneumoniae” value [2, 11] was 5.4.
In the case of `CCn1cc(C(=O)[O-])c(=O)c2cc(F)c(N3CCNCC3)cc21.C[n+]1ccn(CCO)c1` [[C2OHMIM][Nor]], the IC50 [1, 10] is reported as 88.6 nM, the “RDIC50 B. subtilis” value [1, 14] is reported as 1.3 and the IC50 [2, 12] is reported as 201 nM. For the same compound, the “RDIC50 K. pneumoniae” value [2, 14] was 1.3, the IC50 [3, 13] was 91.7 nM and the “RDIC50 S. aureus” value [3, 14] was 1.3.
With `C[n+]1ccn(CCO)c1` [[C2OHmim]Cl, reference compound] the IC50 [1, 7] was > 10000 nM, the IC50 [2, 8] was > 10000 nM and the IC50 [3, 9] was > 10000 nM.
In the case of `COCC[n+]1ccn(C)c1.O=C([O-])c1cn(C2CC2)c2cc(N3CCNCC3)c(F)cc2c1=O` [[C3OMIM][Cip]], the IC50 [1, 10] is reported as 21.7 nM, the “RDIC50 B. subtilis” value [1, 11] is reported as 0.2 and the IC50 [2, 12] is reported as 47.6 nM. For the same compound, the “RDIC50 K. pneumoniae” value [2, 11] was 4.1, the IC50 [3, 13] was 82 nM and the “RDIC50 S. aureus” value [3, 11] was 0.4.
With `CCn1cc(C(=O)[O-])c(=O)c2cc(F)c(N3CCNCC3)cc21.COCC[n+]1ccn(C)c1` [[C3OMIM][Nor]] the IC50 [1, 10] was 68.1 nM, the “RDIC50 B. subtilis” value [1, 14] was 1.7 and the IC50 [2, 12] was 224 nM. For the same compound, the “RDIC50 K. pneumoniae” value [2, 14] was 1.1, the IC50 [3, 13] was 107 nM and the “RDIC50 S. aureus” value [3, 14] was 1.1.
For `COCCn1cc[n+](C)c1` [[C3Omim]Cl, reference compound], the IC50 [1, 7] was > 10000 nM, the IC50 [2, 8] was > 10000 nM and the IC50 [3, 9] was > 10000 nM.
In the case of `CCCCCCCCCCCCCCCC[n+]1ccccc1.[Cl-]` [[C16Py]Cl], the CMC [5] is listed as 1.063 mmol/L, the CMC ([6]; ref 49) is listed as 1.067 mmol/L and the CMC ([6]; ref 50) is listed as 0.96 mmol/L.
In the case of `CCCCCCCCCCCCCCCC[n+]1ccccc1.O=C([O-])c1cn(C2CC2)c2cc(N3CCNCC3)c(F)cc2c1=O` [[C16Py][Cip]], the CMC [5] is reported as 0.0816 mmol/L, the “decrease of activity against B. subtilis in comparison with ciprofloxacin” value [1] is reported as 40% and the IC50 [1, 10] is reported as 6.07 nM. For the same compound, the “RDIC50 B. subtilis” value [1, 11] was 0.6, the IC50 [2, 12] was 9.88 nM and the “RDIC50 K. pneumoniae” value [2, 11] was 19.9. For the same compound, the “activity against S. aureus” value [3] was “almost no activity”, the IC50 [3, 13] was 1430 nM and the “RDIC50 S. aureus” value [3, 11] was 0.0. For the same compound, the IC50 (3T3 mouse fibroblasts) was 4720 nM and the IC50 (3T3 mouse fibroblasts; 0.03–10 µM, 24 h) was 4720 nM.
In the case of `CCCCCCCCCCCCCCCC[n+]1ccccc1.CCn1cc(C(=O)[O-])c(=O)c2cc(F)c(N3CCNCC3)cc21` [[C16Py][Nor]], the “decrease of CMC in comparison with [C16Py]Cl” value [5] is reported as 95%, the CMC [5] is reported as 0.0539 mmol/L and the IC50 [1, 10] is reported as 87.3 nM. For the same compound, the “RDIC50 B. subtilis” value [1, 14] was 1.3, the “increase in activity against K. pneumoniae vs norfloxacin” value [2] was 30% and the IC50 [2, 12] was 203 nM. The “RDIC50 K. pneumoniae” value [2, 14] was 1.3, the IC50 [3, 13] was 10.8 nM and the “RDIC50 S. aureus” value [3, 14] was 11.4. For the same compound, the IC50 (3T3 mouse fibroblasts) was 5170 nM and the IC50 (3T3 mouse fibroblasts; 0.03–10 µM, 24 h) was 5160 nM.
With `C[N+](C)(C)CCO.[Cl-]` [[Ch]Cl, reference compound] the IC50 ([1]; Bacillus subtilis, ATCC6633, read-out: IC50 B. subtilis) was > 10000 nM, the IC50 ([2]; Klebsiella pneumoniae, ATCC11296, read-out: IC50 K. pneumoniae, 0.001–10 µM) was > 10000 nM and the IC50 ([3]; Staphylococcus aureus, ATCC25923, read-out: IC50 S. aureus) was > 10000 nM.
In the case of `C[N+](C)(C)CCO.O=C([O-])c1cn(C2CC2)c2cc(N3CCNCC3)c(F)cc2c1=O` [[Ch][Cip]], the IC50 [1, 10] is reported as 20.6 nM, the “RDIC50 B. subtilis” value [1, 11] is reported as 0.2 and the IC50 [2, 12] is reported as 51.1 nM. For the same compound, the IC50 [3, 13] was 181 nM and the “RDIC50 S. aureus” value [3, 11] was 0.2.
In the case of `CCn1cc(C(=O)[O-])c(=O)c2cc(F)c(N3CCNCC3)cc21.C[N+](C)(C)CCO` [[Ch][Nor]], the IC50 [1, 10] is reported as 95.5 nM, the “RDIC50 B. subtilis” value [1, 14] is reported as 1.2 and the IC50 [2, 12] is reported as 199 nM. For the same compound, the “RDIC50 K. pneumoniae” value [2, 14] was 1.3, the IC50 [3, 13] was 127 nM and the “RDIC50 S. aureus” value [3, 14] was 1.0.
With `CCn1cc[n+](C)c1` [[EMIM]Br, reference compound] the IC50 [1, 7] was > 10000 nM, the IC50 [2, 8] was > 10000 nM and the IC50 [3, 9] was > 10000 nM.
For `CCn1cc[n+](C)c1.O=C([O-])c1cn(C2CC2)c2cc(N3CCNCC3)c(F)cc2c1=O` [[EMIM][Cip]], the IC50 [1, 10] was 16.2 nM, the “RDIC50 B. subtilis” value [1, 11] was 0.2 and the IC50 [2, 12] was 64.8 nM. The “RDIC50 K. pneumoniae” value [2, 11] was 3.0, the IC50 [3, 13] was 24.2 nM and the “RDIC50 S. aureus” value [3, 11] was 1.2.
With `CCn1cc(C(=O)[O-])c(=O)c2cc(F)c(N3CCNCC3)cc21.CCn1cc[n+](C)c1` [[EMIM][Nor]] the IC50 [1, 10] was 24.5 nM, the “RDIC50 B. subtilis” value [1, 14] was 4.8 and the IC50 [2, 12] was 208 nM. The “RDIC50 K. pneumoniae” value [2, 14] was 1.2, the IC50 [3, 13] was 211 nM and the “RDIC50 S. aureus” value [3, 14] was 0.6.
